Results reported in publication PMC9543606, “Structural and ITC Characterization of Peptide‐Protein Binding: Thermodynamic Consequences of Cyclization Constraints, a Case Study on Vascular Endothelial Growth Factor Ligands” (Chemistry (Weinheim an Der Bergstrasse, Germany), 2022).
Where “and” joins values, the source holds several entries; their conditions need not be identical. Identical values can stand only once. Like-named read-outs stand apart in the source and are kept apart here. Where a SMILES comes first, the peptide text is derived from it. Bridges are numbered along the chain shown (N, C = ends). [ ]: non-standard residue; d: D form. Nle = CCCC[C@H](N)C(=O)O

Biological target: VEGF (Homo sapiens, UniProt P15692)
Conditions: for Δ(ΔG 20 °C) / Δ(ΔH 20 °C) / Δ(‐TΔS) 20 °C / Δ(ΔG 37 °C) / Δ(ΔH 37 °C) / Δ(‐TΔS) 37 °C / Δ(ΔCp): ± at P=95 %; for ΔG / −TΔS / ΔH / ΔCp: ITC, 95 % confidence interval in brackets; for ΔG / −TΔS / ΔH: 50 mM HEPES/NaOH, 150 mM NaCl, pH 7.5, first binding site; for ΔG: calculated from Kd (Eq. 1); for −TΔS: calculated from ΔG and ΔH (Eq. 2); for ΔH: normalised on reverse titrations; for ΔCp: heat capacity change on binding from ΔH at 20 °C and 37 °C (Eq. 3)
[1] = 20 °C, monocyclic peptide minus peptide 4 (pairs 1–4, 3–4)
[2] = 37 °C, monocyclic peptide minus peptide 4 (pairs 1–4, 3–4)
[3] = 20 °C, peptide 2 minus peptide 1 (pair 2–1)
[4] = 20 °C, peptide 2 minus peptide 3 (pair 2–3)
[5] = 37 °C, peptide 2 minus peptide 1 (pair 2–1)
[6] = 37 °C, peptide 2 minus peptide 3 (pair 2–3)
[7] = 20 °C, bicyclic peptide minus its monocyclic counterpart
[8] = 37 °C, bicyclic peptide minus its monocyclic counterpart
[9] = bicyclic peptide minus its monocyclic counterpart

Sequence of VEGF (P15692 219-313): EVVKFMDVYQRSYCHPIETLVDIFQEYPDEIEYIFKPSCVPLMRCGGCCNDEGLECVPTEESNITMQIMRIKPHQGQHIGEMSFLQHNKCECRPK

SMILES	ΔG (20 °C)	−TΔS (20 °C)	ΔG (37 °C)	−TΔS (37 °C)	ΔH (37 °C)	ΔCp	ΔH (20 °C)	Δ(ΔH 20 °C) [7]	Δ(‐TΔS) 20 °C [7]	Δ(ΔH 37 °C) [8]	Δ(‐TΔS) 37 °C [8]	Δ(ΔCp) [9]	further results
CCCC[C@@H]1NC(=O)[C@H](C(C)C)NC(=O)[C@H](Cc2c[nH]cn2)NC(=O)[C@H]([C@@H](C)CC)NC(=O)[C@H](CC(=O)O)NC(=O)[C@@H](N)CSSC[C@@H](C(=O)N[C@@H](Cc2ccccc2)C(=O)N[C@@H](CCC(=O)O)C(=O)N[C@@H](CCCCN)C(=O)N[C@@H](CC(C)C)C(N)=O)NC(=O)[C@H](CC(=O)O)NC(=O)[C@H](Cc2c[nH]c3ccccc23)NC(=O)[C@H](CCC(=O)O)NC(=O)[C@H](Cc2c[nH]c3ccccc23)NC1=O [compound 2]	−9.13 [−9.21; −9.05] kcal⋅mol^−1	6.7 [6.3; 7.1] kcal⋅mol^−1	−8.76 [−8.82; −8.70] kcal⋅mol^−1	13.3 [12.7; 13.9] kcal⋅mol^−1	−22.0 [−22.6; −21.5] kcal⋅mol^−1	−0.36 [−0.40; −0.32] kcal⋅mol^−1.K^−1	–	–	–	–	–	–	Δ(ΔG 20 °C) [3]: −0.08±0.12 kcal⋅mol^−1; Δ(ΔH 20 °C) [3]: 2.0 ± 0.6 kcal⋅mol^−1; Δ(ΔG 20 °C) [4]: 0.3 ± 0.2 kcal⋅mol^−1 and 0.33±0.12 kcal⋅mol^−1; Δ(ΔH 20 °C) [4]: 1.4 ± 0.6 kcal⋅mol^−1; Δ(‐TΔS) 20 °C [4]: -1.0 kcal⋅mol^−1 and −1.0±0.8 kcal⋅mol^−1; Δ(ΔG 37 °C) [5]: −0.25±0.08 kcal⋅mol^−1; Δ(ΔH 37 °C) [5]: 0.7 ± 0.7 kcal⋅mol^−1; Δ(‐TΔS) 37 °C [5]: -1.0 ± 0.8 kcal⋅mol^−1; Δ(ΔG 37 °C) [6]: 0.3 ± 0.1 kcal⋅mol^−1 and 0.34±0.08 kcal⋅mol^−1; Δ(ΔH 37 °C) [6]: 1.0 ± 0.7 kcal⋅mol^−1; Δ(‐TΔS) 37 °C [6]: -0.6 ± 0.8 kcal⋅mol^−1; Δ(ΔCp) (peptide 2 minus peptide 1 (pair 2–1)): −0.07±0.05 kcal⋅mol^−1.K^−1; Δ(ΔCp) (peptide 2 minus peptide 3 (pair 2–3)): −0.02±0.05 kcal⋅mol^−1.K^−1
CCCC[C@@H]1NC(=O)[C@H](C(C)C)NC(=O)[C@H](Cc2c[nH]cn2)NC(=O)[C@H]([C@@H](C)CC)NC(=O)[C@H](CC(=O)O)NC(=O)[C@@H](N)CSSC[C@@H]2NC(=O)[C@H](CCC(=O)NCCCC[C@@H](C(=O)N[C@@H](CC(C)C)C(N)=O)NC(=O)[C@H](CCC(=O)O)NC(=O)[C@H](Cc3ccccc3)NC2=O)NC(=O)[C@H](Cc2c[nH]c3ccccc23)NC(=O)[C@H](CCC(=O)O)NC(=O)[C@H](Cc2c[nH]c3ccccc23)NC1=O [3 c]	−.89 [−10.01; −9.78] kcal⋅mol^−1	6.1 [5.6; 6.5] kcal⋅mol^−1	−9.61 [−9.71; −9.52] kcal⋅mol^−1	12.8 [12.3; 13.2] kcal⋅mol^−1	−22.4 [−22.8; −22.0] kcal⋅mol^−1	−0.38 [−0.41; −0.35] kcal⋅mol^−1.K^−1	−16.0 [−16.3; −15.6] kcal⋅mol^−1	1.2±0.7 kcal⋅mol^−1	−1.6±0.8 kcal⋅mol^−1	0.6±0.6 kcal⋅mol^−1	−1.1±0.7 kcal⋅mol^−1	−0.04±0.05 kcal⋅mol^−1.K^−1	–
CCCC[C@@H]1NC(=O)[C@H](C(C)C)NC(=O)[C@H](Cc2c[nH]cn2)NC(=O)[C@H]([C@@H](C)CC)NC(=O)[C@H](CC(=O)O)NC(=O)[C@@H](N)CSSC[C@@H]2NC(=O)[C@H](CCCCNC(=O)CC[C@@H](C(=O)N[C@@H](CC(C)C)C(N)=O)NC(=O)[C@H](CCC(=O)O)NC(=O)[C@H](Cc3ccccc3)NC2=O)NC(=O)[C@H](Cc2c[nH]c3ccccc23)NC(=O)[C@H](CCC(=O)O)NC(=O)[C@H](Cc2c[nH]c3ccccc23)NC1=O [4 c] (H-CDIHV[Nle]WEWKCFEEL-NH2; disulfide 1-11; lactam 10-14)	−9.16 [−9.27; −9.05] kcal⋅mol^−1	6.8 [6.1; 7.6] kcal⋅mol^−1	−8.68 [−8.79; −8.56] kcal⋅mol^−1	13.5 [12.5; 14.7] kcal⋅mol^−1	−22.2 [−23.2; −21.3] kcal⋅mol^−1	−0.37 [−0.43; −0.31] kcal⋅mol^−1.K^−1	−16.0 [−16.6; −15.4] kcal⋅mol^−1	1.4±0.7 kcal⋅mol^−1	−1.3±0.9 kcal⋅mol^−1	0.8±1.2 kcal⋅mol^−1	−0.8±1.3 kcal⋅mol^−1	−0.04±0.08 kcal⋅mol^−1.K^−1	Δ(ΔG 20 °C) (20 °C, bicyclic peptide minus its monocyclic counterpart (1 c–1, 2 c–2, 3 c–3, 4 c–4)): 0.06±0.12 kcal⋅mol^−1; Δ(ΔG 37 °C) [8]: 0.04±0.14 kcal⋅mol^−1

Further lines, with some results ahead:

ΔG (20 °C)	−TΔS (20 °C)	ΔG (37 °C)	−TΔS (37 °C)	ΔH (37 °C)	ΔCp	ΔH (20 °C)	Δ(ΔH 20 °C) [7]	Δ(‐TΔS) 20 °C [7]	Δ(ΔH 37 °C) [8]	Δ(‐TΔS) 37 °C [8]	Δ(ΔCp) [9]	SMILES	further results
−9.05 [−9.15; −8.97] kcal⋅mol^−1	8.7 [8.2; 9.3] kcal⋅mol^−1	−8.51 [−8.56; −8.46] kcal⋅mol^−1	14.2 [13.8; 14.7] kcal⋅mol^−1	−22.8 [−23.1; −22.4] kcal⋅mol^−1	−0.29 [−0.32; −0.26] kcal⋅mol^−1.K^−1	–	–	–	–	–	–	CCCC[C@@H]1NC(=O)[C@H](C(C)C)NC(=O)[C@H](Cc2c[nH]cn2)NC(=O)[C@H]([C@@H](C)CC)NC(=O)[C@H](CC(=O)O)NC(=O)[C@@H](N)CSSC[C@@H](C(=O)N[C@@H](Cc2ccccc2)C(=O)N[C@@H](CCC(=O)O)C(=O)N[C@@H](CC(=O)O)C(=O)N[C@@H](CC(C)C)C(N)=O)NC(=O)[C@H](CCCCN)NC(=O)[C@H](Cc2c[nH]c3ccccc23)NC(=O)[C@H](CCC(=O)O)NC(=O)[C@H](Cc2c[nH]c3ccccc23)NC1=O [compound 1] (H-CDIHV[Nle]WEWKCFEDL-NH2; disulfide 1-11)	Δ(ΔG 20 °C) [1]: 0.2 ± 0.1 kcal⋅mol^−1 and 0.16±0.10 kcal⋅mol^−1; Δ(ΔH 20 °C) [1]: -0.4 ± 0.6 kcal⋅mol^−1; Δ(‐TΔS) 20 °C [1]: 0.6 ± 0.7 kcal⋅mol^−1; Δ(ΔG 37 °C) [2]: 0.2 ± 0.1 kcal⋅mol^−1 and 0.20±0.09 kcal⋅mol^−1; Δ(ΔH 37 °C) [2]: 0.2 ± 0.8 kcal⋅mol^−1; Δ(‐TΔS) 37 °C [2]: 0.0 ± 1.0 kcal⋅mol^−1; Δ(ΔCp) (monocyclic peptide minus peptide 4 (pairs 1–4, 3–4)): 0.04±0.06 kcal⋅mol^−1.K^−1
−9.22 [−9.27; −9.16] kcal⋅mol^−1	8.2 [7.8; 8.5] kcal⋅mol^−1	−8.71 [−8.80; −8.63] kcal⋅mol^−1	14.3 [13.5; 15.1] kcal⋅mol^−1	−23.0 [−23.7; −22.3] kcal⋅mol^−1	−0.33 [−0.38; −0.28] kcal⋅mol^−1.K^−1	−17.4 [−17.7; −17.1] kcal⋅mol^−1	–	–	–	–	–	CCCC[C@@H]1NC(=O)[C@H](C(C)C)NC(=O)[C@H](Cc2c[nH]cn2)NC(=O)[C@H]([C@@H](C)CC)NC(=O)[C@H](CC(=O)O)NC(=O)[C@@H](N)CSSC[C@@H](C(=O)N[C@@H](Cc2ccccc2)C(=O)N[C@@H](CCC(=O)O)C(=O)N[C@@H](CCC(=O)O)C(=O)N[C@@H](CC(C)C)C(N)=O)NC(=O)[C@H](CCCCN)NC(=O)[C@H](Cc2c[nH]c3ccccc23)NC(=O)[C@H](CCC(=O)O)NC(=O)[C@H](Cc2c[nH]c3ccccc23)NC1=O [compound 4] (H-CDIHV[Nle]WEWKCFEEL-NH2; disulfide 1-11)	–
